Molecular target: T1, crenactin (Pc crenactin) (Pyrobaculum calidifontis, UniProt A3MWN5)
T1 construct: gene cren-1; full length 1-432, codon-optimised, expressed in E. coli as His6-SUMO fusion, tag cleaved by SENP1 with no residues added or removed; helical filament in crystal
Assay: X-ray crystallography, […] Å
Type: binding
Settings: crystals from 100 mM phosphate/citrate pH 4.2, 200 mM lithium sulfate, 20% PEG 1000; one ADP per subunit, 0 Mg; nucleotide cleft between domains I and II

T1 sequence (A3MWN5 whole entry, the tested form may be a part): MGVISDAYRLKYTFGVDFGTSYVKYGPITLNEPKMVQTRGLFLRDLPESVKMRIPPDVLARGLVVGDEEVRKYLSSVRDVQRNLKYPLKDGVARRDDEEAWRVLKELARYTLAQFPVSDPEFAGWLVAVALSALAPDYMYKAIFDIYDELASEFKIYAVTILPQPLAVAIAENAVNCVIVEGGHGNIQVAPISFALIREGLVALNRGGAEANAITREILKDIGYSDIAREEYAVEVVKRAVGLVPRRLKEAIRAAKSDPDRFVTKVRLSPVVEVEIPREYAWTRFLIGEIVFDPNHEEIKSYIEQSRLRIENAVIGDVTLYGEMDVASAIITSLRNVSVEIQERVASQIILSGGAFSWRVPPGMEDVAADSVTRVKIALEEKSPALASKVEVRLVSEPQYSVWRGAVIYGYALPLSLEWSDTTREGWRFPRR

Nc1ncnc2c1ncn2[C@@H]1O[C@H](COP(=O)(O)OP(=O)(O)O)[C@@H](O)[C@H]1O [ADP]
X-ray crystallography, 3.2 Å: one molecule of ADP was located and added in each crenactin subunit

— paper PMC4158420, “Crenactin from Pyrobaculum calidifontis is closely related to actin in structure and forms steep helical filaments” (Febs Letters, 2014)
